# Results: patent publication US10100076B2, “Modified nucleosides for the treatment of viral infections and abnormal cellular proliferation” (priority 2000, dated 2018)
# How the values were obtained:
# HCV replicon = HCV replicon system in Huh7 cells, replicon RNA by Q-RT-PCR (HCV ΔCt, ΔΔCt); type: cell-based, hepatitis C virus; conditions: for Ave. ΔΔCt: HCV RNA ΔCt minus rRNA ΔCt; for Ave. HCV RNA ΔCt: HCV replicon in Huh7 cells; for average ΔΔCt: HCV RNA ΔCt minus rDNA ΔCt
# [1] = test system: rRNA (host RNA polymerase I product); test: rRNA ΔCt in Huh7 replicon cells (effect on host RNA polymerases); conditions: Table 24, average of n
# From the text: In a typical setting, a compound might reduce both the host RNA polymerase activity and the replicon-encoded polymerase activity. Therefore, quantification of rRNA (or any other host RNA polymerase I product) or beta-actin mRNA (or any other host RNA polymerase II) and comparison with RNA levels of the no-drug control is a relative measurement of the effect of the test compound on host RNA polymerases.
# With the availability of both the HCV ΔCt data and the rRNA ΔCt, a specificity parameter can be introduced. This parameter is obtained by subtracting both ΔCt values from each other.
# rDNA (host DNA) = test: rDNA ΔCt in Huh7 replicon cells (effect on cellular DNA polymerases); conditions: Table 25, average of N
# From the text: In another typical setting, a compound might reduce the host RNA polymerase activity, but not the host DNA polymerase activity. Therefore, quantification of rDNA or beta-actin DNA (or any other host DNA fragment) and comparison with DNA levels of the no-drug control is a relative measurement of the inhibitory effect of the test compound on cellular DNA polymerases.
# With the availability of both the HCV ΔCt data and the rDNA ΔCt, a specificity parameter can be introduced. This parameter is obtained by subtracting both ΔCt values from each other.
# Note: test concentration or dose not given here.
SMILES,Ave. ΔΔCt (HCV replicon; Table 24),"Ave. HCV RNA ΔCt (HCV replicon; Table 24, average of n)",Ave. rRNA ΔCt [1],Ave. rDNA ΔCt (rDNA (host DNA)),average ΔΔCt (HCV replicon; Table 25),"Ave. HCV RNA ΔCt (HCV replicon; Table 25, average of N)"
"NC(=O)c1ncn([C@@H]2O[C@H](CO)[C@@H](O)[C@H]2O)n1 [RIB, ribavirin, reference compound]",0.78,3.13,2.35,,,
Nc1ccn([C@@H]2O[C@H](CO)[C@@H](O)[C@@H]2O)c(=O)n1 [β-D-AA],1.42,3.83,2.41,2.53,1.88,3.83
Nc1ccn([C@@H]2O[C@H](CO)[C@H](Br)[C@H]2O)c(=O)n1 [β-D-AI],0.48,2.93,2.43,−0.96,4.55,3.76
CS(=O)(=O)OC1C(CO)OC(n2ccc(N)nc2=O)C1O [β-D-AK],1.25,3.73,2.48,2.69,0.79,3.51
Cc1ccc(S(=O)(=O)O[C@@H]2[C@@H](O)[C@H](n3ccc(N)nc3=O)O[C@@H]2CO)cc1 [β-D-AL],0.36,3.08,2.72,2.56,0.61,3.18
Nc1ccn([C@@H]2O[C@H](CO)[C@@H](O)[C@@H]2Cl)c(=O)n1 [β-D-AN],1.22,3.33,2.11,2.53,1.88,3.86
[2H]c1c(N)nc(=O)n([C@@H]2O[C@H](CO)[C@@H](O)[C@@H]2O)c1[2H] [β-D-AO],1.97,4.10,2.13,1.84,2.26,4.10
Nc1nc(=O)n([C@@H]2O[C@H](CO)[C@@H](O)[C@@H]2O)cc1F [β-D-AP],0.05,3.27,3.23,2.26,1.02,3.27
Nc1nc(=O)n([C@@H]2O[C@H](CO)[C@@H](O)[C@H]2O)cc1F [β-D-AQ],1.22,4.45,3.22,1.78,2.73,4.75
Nc1nc(=O)n(C2OC(CO)C(Br)C2O)cc1F [β-D-AT],0.64,3.71,3.07,2.43,1.43,3.81
Nc1nc(=O)n([C@@H]2O[C@H](CO)[C@H](Br)[C@H]2O)cc1I [β-D-BE],1.64,4.44,2.80,2.06,2.98,4.99
Cc1ccc(S(=O)(=O)O[C@@H]2[C@@H](O)[C@H](n3cc(I)c(N)nc3=O)O[C@@H]2CO)cc1 [β-D-BF],1.68,4.37,2.69,2.04,3.28,5.27
Nc1nc(=O)n([C@@H]2O[C@H](CO)[C@@H](O)[C@@H]2Br)cc1I [β-D-BH],2.15,3.06,0.91,1.42,1.64,3.06
Nc1cn([C@@H]2O[C@H](CO)[C@@H](O)[C@H]2O)c(=O)nc1N [β-D-BJ],1.44,5.06,3.62,0.81,3.53,4.34
N=c1nc(N)ccn1[C@@H]1O[C@H](CO)[C@@H](O)[C@@H]1O [β-D-BL],0.35,2.28,1.93,1.62,0.65,2.28
CC(=O)Nc1ccn([C@@H]2O[C@H](CO)[C@@H](O)[C@@H]2O)c(=O)n1 [β-D-BO],1.57,4.52,2.95,,,
